Laboratory results: ChEMBL document CHEMBL1201862, “PubChem BioAssay data set” (2004)
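Cells were grown in 96-well plates and exposed to each compound for 48 hours at five concentrations; endpoints were interpolated linearly between bracketing concentrations, or set to the highest concentration if not reached. Here, GI50 denotes the concentration required for 50% inhibition of growth.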 Active and inactive are the calls of the source. No stated cut-off is given here; in the data, active = GI50 up to about 1.1 µM and inactive = higher.

Legend:
Assay in all cases: NCI tumour cell line growth inhibition, 48 h
SNB-75 = system: SNB-75
U-251 = system: U-251
OVCAR-5 = system: OVCAR-5
XF498 = system: XF498
K562 = system: K562
RPMI-8226 = system: RPMI-8226
DMS-114 = system: DMS-114
SK-MEL-2 = system: SK-MEL-2
KM12 = system: KM12
NCI-H460 = system: NCI-H460
Malme-3M = system: Malme-3M
SF-295 = system: SF-295
SK-OV-3 = system: SK-OV-3
OVCAR-3 = system: OVCAR-3
M19-MEL = system: M19-MEL
UACC-257 = system: UACC-257
SN12C = system: SN12C
786-0 = system: 786-0
SNB-19 = system: SNB-19
SW-620 = system: SW-620
ACHN = system: ACHN
M14 = system: M14
HOP-62 = system: HOP-62
NCI-H522 = system: NCI-H522
A498 = system: A498
SF-268 = system: SF-268
NCI-H23 = system: NCI-H23
UO-31 = system: UO-31
OVCAR-8 = system: OVCAR-8
CAKI-1 = system: CAKI-1
LXFL 529 = system: LXFL 529
SK-MEL-28 = system: SK-MEL-28
CCRF-CEM = system: CCRF-CEM
UACC-62 = system: UACC-62
A549 = system: A549
TK-10 = system: TK-10
HCT-116 = system: HCT-116
SR = system: SR
EKVX = system: EKVX
HT-29 = system: HT-29
NCI-H226 = system: NCI-H226
COLO 205 = system: COLO 205
DLD-1 = system: DLD-1
HOP-92 = system: HOP-92
HL-60 = system: HL-60
MOLT-4 = system: MOLT-4
IGROV-1 = system: IGROV-1
OVCAR-4 = system: OVCAR-4
SK-MEL-5 = system: SK-MEL-5
HOP-18 = system: HOP-18
SF-539 = system: SF-539
HCC 2998 = system: HCC 2998
DMS-273 = system: DMS-273
HCT-15 = system: HCT-15
SNB-78 = system: SNB-78
RXF 393 = system: RXF 393
LOX IMVI = system: LOX IMVI
MCF7 = system: MCF7
NCI/ADR-RES = system: NCI/ADR-RES
KM-20L2 = system: KM-20L2

Measured: GI50

COc1ccc(CC2(Cc3ccc(OC)cc3)CCOC2=O)cc1
active: XF498 0.582 µM
inactive: SNB-75 14.7 µM | U-251 > 100 µM | OVCAR-5 > 100 µM | K562 > 100 µM | RPMI-8226 > 100 µM | DMS-114 23.9 µM | SK-MEL-2 94.8 µM | KM12 > 100 µM | NCI-H460 > 100 µM | Malme-3M > 100 µM | SF-295 60.1 µM | SK-OV-3 > 100 µM | OVCAR-3 > 100 µM | M19-MEL > 100 µM | UACC-257 > 100 µM | SN12C > 100 µM | 786-0 44 µM | SNB-19 > 100 µM | SW-620 > 100 µM | ACHN 94.8 µM | M14 > 100 µM | HOP-62 20.8 µM | NCI-H522 17.7 µM | A498 > 100 µM | SF-268 45.8 µM | NCI-H23 > 100 µM | UO-31 > 100 µM | OVCAR-8 > 100 µM | CAKI-1 67 µM | LXFL 529 > 100 µM | SK-MEL-28 > 100 µM | CCRF-CEM > 100 µM | UACC-62 > 100 µM | A549 > 100 µM | TK-10 > 100 µM | HCT-116 > 100 µM | SR > 100 µM | EKVX 44.2 µM | HT-29 > 100 µM | NCI-H226 > 100 µM | COLO 205 > 100 µM | DLD-1 > 100 µM | HOP-92 40.6 µM | HL-60 > 100 µM | MOLT-4 > 100 µM | IGROV-1 > 100 µM | OVCAR-4 > 100 µM

COc1cc(C2C(Cl)C(=O)N2NC(=O)c2ccc(NC(C)=O)cc2)cc(Br)c1O (centres undefined)
inactive: SNB-75 > 100 µM | U-251 > 100 µM | OVCAR-5 > 100 µM | K562 > 100 µM | RPMI-8226 > 100 µM | SK-MEL-2 > 100 µM | KM12 > 100 µM | NCI-H460 > 100 µM | Malme-3M > 100 µM | SF-295 > 100 µM | SK-OV-3 > 100 µM | OVCAR-3 > 100 µM | SK-MEL-5 > 100 µM | M19-MEL > 100 µM | UACC-257 > 100 µM | SNB-19 > 100 µM | HOP-18 > 100 µM | SW-620 > 100 µM | SF-539 > 100 µM | ACHN > 100 µM | HOP-62 > 100 µM | NCI-H522 > 100 µM | SF-268 > 100 µM | NCI-H23 > 100 µM | HCC 2998 > 100 µM | UO-31 > 100 µM | OVCAR-8 > 100 µM | LXFL 529 > 100 µM | SK-MEL-28 > 100 µM | CCRF-CEM > 100 µM | UACC-62 > 100 µM | A549 > 100 µM | TK-10 > 100 µM | HCT-116 > 100 µM | SR > 100 µM | HT-29 > 100 µM | NCI-H226 > 100 µM | COLO 205 > 100 µM | DLD-1 > 100 µM | HOP-92 > 100 µM | HL-60 > 100 µM | MOLT-4 > 100 µM | IGROV-1 > 100 µM

COc1cccc(-c2nc3c(C(=O)NCCN(C)C)cccc3[nH]2)c1
18.9 µM: HCT-15
inactive: SNB-75 21.3 µM | U-251 23.8 µM | OVCAR-5 19.1 µM | K562 15.1 µM | RPMI-8226 13.2 µM | DMS-114 15.3 µM | SK-MEL-2 18.8 µM | KM12 20.8 µM | NCI-H460 11.1 µM | Malme-3M 14 µM | SF-295 16.2 µM | SK-OV-3 21.3 µM | OVCAR-3 22.7 µM | SK-MEL-5 16.7 µM | M19-MEL 16.3 µM | DMS-273 11.3 µM | UACC-257 16.1 µM | SN12C 17.4 µM | SNB-78 40.4 µM | SNB-19 31.3 µM | RXF 393 20.7 µM | HOP-18 18.4 µM | SW-620 12.7 µM | SF-539 17.1 µM | LOX IMVI 13.3 µM | HOP-62 15.1 µM | NCI-H522 15.2 µM | A498 16.3 µM | SF-268 13.2 µM | MCF7 21.8 µM | NCI/ADR-RES 18 µM | NCI-H23 19.2 µM | HCC 2998 15.6 µM | UO-31 11.2 µM | OVCAR-8 15.7 µM | CAKI-1 16 µM | SK-MEL-28 15.8 µM | CCRF-CEM 8.05 µM | UACC-62 16.7 µM | A549 18.5 µM | HCT-116 7.73 µM | EKVX 34.4 µM | HT-29 11 µM | KM-20L2 14.4 µM | NCI-H226 14 µM | COLO 205 10 µM | DLD-1 18.5 µM | HOP-92 18.5 µM | HL-60 15.7 µM | MOLT-4 3.38 µM | IGROV-1 21.4 µM | OVCAR-4 26.3 µM
